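Protocol summary: plate cells (96-well), add compound at 5 concentrations, incubate 48 h, interpolate endpoints linearly. TGI marks complete inhibition of growth.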
Tested on: M14 melanoma
Assay: NCI anticancer screen, dose series, 48 h

In order of falling TGI:
1. Cc1ccc(O)c(-c2cc(-c3cccc(Br)c3)c(C#N)c(N)n2)c1  89.2 µM
2. O=[N+]([O-])c1ccc(NC(=S)N=Nc2c(O)[nH]c3ccccc23)cc1  25.7 µM

Tested on: COLO 205 colon
Assay: NCI anticancer screen, dose series, 48 h

Compared with `COc1ccc(C(c2ccc(OC)cc2)N2C(=O)CCC2C(=O)O)cc1` (centres undefined), `O=[N+]([O-])c1ccc(NC(=S)N=Nc2c(O)[nH]c3ccccc23)cc1` is lower in TGI: over 100 µM for the first, 26.3 µM for the second.

First: CCOC(=O)C1=C(C#N)S(=O)(=O)c2c(oc(C)c2C)N1
Second: Cc1ccc(O)c(-c2cc(-c3cccc(Br)c3)c(C#N)c(N)n2)c1
The TGI of the first is higher: over 100 µM for the first, 34.2 µM for the second.

Work on `Cc1cccc(/C=N/NC(=S)Nc2ccc(Cl)cc2)n1` yielded a TGI of 17.6 µM.

Tested on: 786-0 renal
Assay: NCI anticancer screen, dose series, 48 h

First: COc1ccc(C(c2ccc(OC)cc2)N2C(=O)CCC2C(=O)O)cc1 (centres undefined)
Second: O=[N+]([O-])c1ccc(NC(=S)N=Nc2c(O)[nH]c3ccccc23)cc1
The TGI of the first is higher: over 100 µM for the first, 18.4 µM for the second.

`CCOC(=O)C1=C(C#N)S(=O)(=O)c2c(oc(C)c2C)N1` and `Cc1ccc(O)c(-c2cc(-c3cccc(Br)c3)c(C#N)c(N)n2)c1` cannot be ordered by TGI: over 100 µM for the first, over 100 µM for the second.

Work on `Cc1cccc(/C=N/NC(=S)Nc2ccc(Cl)cc2)n1` yielded a TGI of 12.1 µM.

Tested on: HCC-2998 colon
Assay: NCI anticancer screen, dose series, 48 h

First: COc1ccc(C(c2ccc(OC)cc2)N2C(=O)CCC2C(=O)O)cc1 (centres undefined)
Second: O=[N+]([O-])c1ccc(NC(=S)N=Nc2c(O)[nH]c3ccccc23)cc1
The TGI of the first is higher: over 100 µM for the first, 26.7 µM for the second.

Compared with `CCOC(=O)C1=C(C#N)S(=O)(=O)c2c(oc(C)c2C)N1`, `Cc1ccc(O)c(-c2cc(-c3cccc(Br)c3)c(C#N)c(N)n2)c1` is lower in TGI: over 100 µM for the first, 48.6 µM for the second.

Work on `Cc1cccc(/C=N/NC(=S)Nc2ccc(Cl)cc2)n1` yielded a TGI of 40.3 µM.

Tested on: T-47D breast
Assay: NCI anticancer screen, dose series, 48 h

First: COc1ccc(C(c2ccc(OC)cc2)N2C(=O)CCC2C(=O)O)cc1 (centres undefined)
Second: O=[N+]([O-])c1ccc(NC(=S)N=Nc2c(O)[nH]c3ccccc23)cc1
The TGI of the first is higher: over 100 µM for the first, 37.7 µM for the second.

Compared with `CCOC(=O)C1=C(C#N)S(=O)(=O)c2c(oc(C)c2C)N1`, `Cc1ccc(O)c(-c2cc(-c3cccc(Br)c3)c(C#N)c(N)n2)c1` is lower in TGI: over 100 µM for the first, 76.2 µM for the second.

`Cc1cccc(/C=N/NC(=S)Nc2ccc(Cl)cc2)n1` was tested, and the TGI was over 100 µM.

Tested on: SF-295 CNS
Assay: NCI anticancer screen, dose series, 48 h

Going from `COc1ccc(C(c2ccc(OC)cc2)N2C(=O)CCC2C(=O)O)cc1` (centres undefined) to `O=[N+]([O-])c1ccc(NC(=S)N=Nc2c(O)[nH]c3ccccc23)cc1`, the TGI falls from over 100 µM to 21.5 µM.

Compared with `CCOC(=O)C1=C(C#N)S(=O)(=O)c2c(oc(C)c2C)N1`, `Cc1ccc(O)c(-c2cc(-c3cccc(Br)c3)c(C#N)c(N)n2)c1` is lower in TGI: over 100 µM for the first, 54.2 µM for the second.

Work on `Cc1cccc(/C=N/NC(=S)Nc2ccc(Cl)cc2)n1` yielded a TGI of 14.4 µM.

Tested on: HT29 colon
Assay: NCI anticancer screen, dose series, 48 h

`COc1ccc(C(c2ccc(OC)cc2)N2C(=O)CCC2C(=O)O)cc1` (centres undefined) and `O=[N+]([O-])c1ccc(NC(=S)N=Nc2c(O)[nH]c3ccccc23)cc1` cannot be ordered by TGI: over 100 µM for the first, over 100 µM for the second.

First: CCOC(=O)C1=C(C#N)S(=O)(=O)c2c(oc(C)c2C)N1
Second: Cc1ccc(O)c(-c2cc(-c3cccc(Br)c3)c(C#N)c(N)n2)c1
The TGI of the first is higher: over 100 µM for the first, 54.7 µM for the second.

With `Cc1cccc(/C=N/NC(=S)Nc2ccc(Cl)cc2)n1` the TGI was 54.5 µM.

Tested on: KM12 colon
Assay: NCI anticancer screen, dose series, 48 h

Compared with `COc1ccc(C(c2ccc(OC)cc2)N2C(=O)CCC2C(=O)O)cc1` (centres undefined), `O=[N+]([O-])c1ccc(NC(=S)N=Nc2c(O)[nH]c3ccccc23)cc1` is lower in TGI: over 100 µM for the first, 78.2 µM for the second.

First: CCOC(=O)C1=C(C#N)S(=O)(=O)c2c(oc(C)c2C)N1
Second: Cc1ccc(O)c(-c2cc(-c3cccc(Br)c3)c(C#N)c(N)n2)c1
The TGI of the first is higher: over 100 µM for the first, 58.9 µM for the second.

With `Cc1cccc(/C=N/NC(=S)Nc2ccc(Cl)cc2)n1` the TGI was 40.8 µM.

Tested on: MDA-N
Assay: NCI anticancer screen, dose series, 48 h

First: COc1ccc(C(c2ccc(OC)cc2)N2C(=O)CCC2C(=O)O)cc1 (centres undefined)
Second: O=[N+]([O-])c1ccc(NC(=S)N=Nc2c(O)[nH]c3ccccc23)cc1
The TGI of the first is higher: over 100 µM for the first, 30.2 µM for the second.

First: CCOC(=O)C1=C(C#N)S(=O)(=O)c2c(oc(C)c2C)N1
Second: Cc1ccc(O)c(-c2cc(-c3cccc(Br)c3)c(C#N)c(N)n2)c1
The TGI of the first is higher: over 100 µM for the first, 79.6 µM for the second.

Work on `Cc1cccc(/C=N/NC(=S)Nc2ccc(Cl)cc2)n1` yielded a TGI of 25.5 µM.

Tested on: NCI/ADR-RES ovarian
Assay: NCI anticancer screen, dose series, 48 h

Going from `COc1ccc(C(c2ccc(OC)cc2)N2C(=O)CCC2C(=O)O)cc1` (centres undefined) to `O=[N+]([O-])c1ccc(NC(=S)N=Nc2c(O)[nH]c3ccccc23)cc1`, the TGI falls from over 100 µM to 23.7 µM.

`CCOC(=O)C1=C(C#N)S(=O)(=O)c2c(oc(C)c2C)N1` and `Cc1ccc(O)c(-c2cc(-c3cccc(Br)c3)c(C#N)c(N)n2)c1` cannot be ordered by TGI: over 100 µM for the first, over 100 µM for the second.

In the case of `Cc1cccc(/C=N/NC(=S)Nc2ccc(Cl)cc2)n1`, the TGI is reported as 26 µM.

Tested on: MALME-3M melanoma
Assay: NCI anticancer screen, dose series, 48 h

Compared with `COc1ccc(C(c2ccc(OC)cc2)N2C(=O)CCC2C(=O)O)cc1` (centres undefined), `O=[N+]([O-])c1ccc(NC(=S)N=Nc2c(O)[nH]c3ccccc23)cc1` is lower in TGI: over 100 µM for the first, 21.9 µM for the second.

Compared with `CCOC(=O)C1=C(C#N)S(=O)(=O)c2c(oc(C)c2C)N1`, `Cc1ccc(O)c(-c2cc(-c3cccc(Br)c3)c(C#N)c(N)n2)c1` is lower in TGI: over 100 µM for the first, 63.1 µM for the second.

`Cc1cccc(/C=N/NC(=S)Nc2ccc(Cl)cc2)n1` was tested, and the TGI was 20.8 µM.

Tested on: MCF7 breast
Assay: NCI anticancer screen, dose series, 48 h

Compared with `COc1ccc(C(c2ccc(OC)cc2)N2C(=O)CCC2C(=O)O)cc1` (centres undefined), `O=[N+]([O-])c1ccc(NC(=S)N=Nc2c(O)[nH]c3ccccc23)cc1` is lower in TGI: over 100 µM for the first, 38.1 µM for the second.

First: CCOC(=O)C1=C(C#N)S(=O)(=O)c2c(oc(C)c2C)N1
Second: Cc1ccc(O)c(-c2cc(-c3cccc(Br)c3)c(C#N)c(N)n2)c1
The TGI of the first is higher: over 100 µM for the first, 92 µM for the second.

In the case of `Cc1cccc(/C=N/NC(=S)Nc2ccc(Cl)cc2)n1`, the TGI is reported as 25.9 µM.

Tested on: DU-145 prostate
Assay: NCI anticancer screen, dose series, 48 h

Compared with `COc1ccc(C(c2ccc(OC)cc2)N2C(=O)CCC2C(=O)O)cc1` (centres undefined), `O=[N+]([O-])c1ccc(NC(=S)N=Nc2c(O)[nH]c3ccccc23)cc1` is lower in TGI: over 100 µM for the first, 29.5 µM for the second.

`CCOC(=O)C1=C(C#N)S(=O)(=O)c2c(oc(C)c2C)N1` and `Cc1ccc(O)c(-c2cc(-c3cccc(Br)c3)c(C#N)c(N)n2)c1` cannot be ordered by TGI: over 100 µM for the first, over 100 µM for the second.

`Cc1cccc(/C=N/NC(=S)Nc2ccc(Cl)cc2)n1` gave a TGI of over 100 µM.

Tested on: OVCAR-8 ovarian
Assay: NCI anticancer screen, dose series, 48 h

Compared with `COc1ccc(C(c2ccc(OC)cc2)N2C(=O)CCC2C(=O)O)cc1` (centres undefined), `O=[N+]([O-])c1ccc(NC(=S)N=Nc2c(O)[nH]c3ccccc23)cc1` is lower in TGI: over 100 µM for the first, 3.16 µM for the second.

`CCOC(=O)C1=C(C#N)S(=O)(=O)c2c(oc(C)c2C)N1` and `Cc1ccc(O)c(-c2cc(-c3cccc(Br)c3)c(C#N)c(N)n2)c1` cannot be ordered by TGI: over 100 µM for the first, over 100 µM for the second.

For `Cc1cccc(/C=N/NC(=S)Nc2ccc(Cl)cc2)n1`, the TGI was 33.7 µM.

Tested on: NCI-H460 lung
Assay: NCI anticancer screen, dose series, 48 h

`COc1ccc(C(c2ccc(OC)cc2)N2C(=O)CCC2C(=O)O)cc1` (centres undefined) and `CCOC(=O)C1=C(C#N)S(=O)(=O)c2c(oc(C)c2C)N1` cannot be ordered by TGI: over 100 µM for the first, over 100 µM for the second.

From PubChem BioAssay (NCI)
